Series [1] concerns EGF-stimulated HaCaT cells. Nature of the series: Neutral Red cell viability assay on EGF-stimulated HaCaT cells (actinic keratosis model). Particulars: for potency relative to diclofenac (native drugs): ratio of IC50 values on EGF-stimulated HaCaT. The format is cell-based, human. As to the method:
(§1) The immortalized human keratinocyte (HaCaT) cells and human squamous carcinoma (A431) cells (Sigma-Aldrich, Milan, Italy) were cultured in RPMI 1640 (Euroclone, Milan, Italy) supplemented with 10% fetal bovine serum (FBS), 100 U/mL penicillin, and 100 μg/mL streptomycin (Euroclone) at 37 °C in a humidified atmosphere containing 5% CO2.
HaCaT cells under the proliferative stimulus of EGF were used as model of actinic keratosis (AK), a precancerous disease that can progress in cutaneous squamous cell carcinoma (cSCC), according to the critical role played by the EGFR/Fyn/Src/Erk pathway for promoting cSCC formation. Cells were stimulated with EGF at the concentration 5 ng/mL for whole time of treatment with test compounds (see below).
(§2) Both HaCaT (EGF-stimulated) and A431 cells were incubated for 72 h with the test compounds at concentrations in the range 0.1–100 μM.
(§3) Cell viability was measured using the Neutral Red (NR) Assay (N2889, Sigma-Aldrich, Darmstadt, Germany) as previously reported. HaCaT and A431 cell lines were seeded at a density of 5 × 10^4 cells/well in 10% FBS medium in a 96-well plate. After 24 h, test compounds, dissolved in DMSO, were diluted in sterile culture medium supplemented with EGF (HaCaT cells) or 1% FBS (A431 cells) and added into the well plate. […] Diclofenac, HT, T and hybrids 1–4 were tested. After 72 h from treatment, NR was added and cells incubated for 2 h. At the end of the incubation period, cells were washed with PBS and, then, incubated for 10 min with a NR solubilisation solution (1% acetic acid in 50% ethanol). The absorbance was measured at 540 nm using the Infinite M200 NanoQuant instrument (Tecan, Salzburg, Austria). Optical density values from vehicle-treated cells were considered as 100% cell viability.

The subject of the next series is A431 cells. Nature of the series: Neutral Red cell viability assay on A431 squamous carcinoma cells. The following applies: for IC50: neutral red, 0.1–100 μM, NR: not reached. Type of series: cell-based, human. As to the method: as §1, §2, §3
Series [2] can be described thus: In vitro cutaneous permeation through pig ear skin (Gummer-type diffusion cells). Type of series: in vitro ADME. Particulars: measured as hybrid 1 in receiving phase; 24 h. From the text:
Porcine ears skin, obtained from freshly sacrificed animals in a local slaughterhouse, was used as model. After cleaning with depurated water, full-thickness skin was removed with a scalpel from the cartilage of the outer region. The excised pig ear skin was carefully deprived of the adhering fat and subcutaneous tissue. Prior to the experiments, the pig hairs were abscised and the skin was gently washed. The skin with a thickness about 1.46 ± 0.06 mm was placed in the Gummer-type diffusion cells with the stratum corneum facing the donor compartment and an available diffusion area of […]. […]
The concentration of diclofenac and hybrid 1 in receiving fluids and in the skin samples was selectively determined by HPLC. […]
Linear regression analysis of pseudo steady state diffusion plots allowed calculation of the following parameters: steady-state flux (J, nmols/cm^2·h), given by Q/At, where Q is the amount of permeant diffusing across area A in time t; lag time (h), indicating the time taken by the drug to saturate the membrane and reach the receiving phase, calculated from the X-axis intercept values of the regression lines and the amount of drug permeated at the end of the experiment (Q24h, nmols).

The conditions of series [3]: no reference given; cited from earlier work.
[4] abbreviates: Homo sapiens, EGF-stimulated HaCaT (5 ng/mL EGF), 72 h, neutral red, 0.1–100 μM, NR: not reached.
The mark [5] stands for this setting: Homo sapiens, A-431, A431, 72 h.
Where [6] appears, read: EGF-stimulated HaCaT (5 ng/mL EGF), 72 h, neutral red, 0.1–100 μM, NR: not reached.

“Also recorded” adds a separate entry of the source. A value given as a limit tells only on which side of the number the result lay.

A word on the IC50: it is the concentration that inhibits the measured activity by half. Low values mean greater potency, high ones weaker potency. Turning to `O=C(O)Cc1ccccc1Nc1c(Cl)cccc1Cl` [diclofenac], the half-maximal inhibitory concentration (IC50) in series [1] (setting [4]) was found to be 67.1 ± 1.94 µM; in the series on A431 cells (setting [5]), 32 ± 1.05 µM.

Regarding `OCCc1ccc(O)c(O)c1` [HT, hydroxytyrosol, reference compound], the figures for the IC50 (in series [1] (setting [4]); in the series with A431 cells (setting [5])) were 72.3 ± 3.58 µM and > 100 µM, respectively.

A word on the melting point: it is the temperature of the solid-liquid transition. Regarding `O=C(Cc1ccccc1Nc1c(Cl)cccc1Cl)OCCc1ccc(O)c(O)c1` [hybrid 1, 3,4-Dihydroxyphenethyl 2-(2-((2,6-dichlorophenyl)amino)phenyl)acetate], the melting point is 123 to 125 °C. The molecule also showed an IC50 in series [1] (setting [4]) of 3.71 ± 1.08 µM. For the same molecule, the “potency relative to diclofenac (native drugs)” value in series [1] is “about 20 fold”. The “IC50 in A431 relative to IC50 in EGF-stimulated HaCaT” value in the series with A431 cells (A431 vs EGF-stimulated HaCaT) was “about 4 fold”. In the series on A431 cells (setting [5]), this molecule returned an IC50 of 13.5 ± 2.49 µM. For the same molecule, the Flux entry in series [2] is on record as “did not permeate across the skin”.

For `O=C(CCCOC(=O)Cc1ccccc1Nc1c(Cl)cccc1Cl)OCCc1ccc(O)cc1` [hybrid 4, 4-Hydroxyphenethyl 4-(2-(2-((2,6-dichlorophenyl)amino)phenyl)acetoxy)butanoate], the “effect on cell viability (in words)” value in series [1] (EGF-stimulated HaCaT, 72 h) is on record as “antiproliferative effect lower than that of diclofenac; also recorded: not able to induce modification in cell viability”; in the series with A431 cells (A431, 72 h), “not able to induce modification in cell viability”. The IC50 (in series [1] (setting [4]); in the series with A431 cells (setting [5])) was > 100 µM each time.

Consider `O=C(CCCOC(=O)Cc1ccccc1Nc1c(Cl)cccc1Cl)OCCc1ccc(O)c(O)c1` [hybrid 3, 3,4-Dihydroxyphenethyl 4-(2-(2-((2,6-dichlorophenyl)amino)phenyl)acetoxy)butanoate], for which the IC50 in series [1] (setting [4]) turned out to be 17.8 ± 1.09 µM; with A431 cells (setting [5]), 30.7 ± 1.33 µM.

Take `O=C(O)Cc1ccccc1Nc1c(Cl)cccc1Cl` [diclofenac sodium]: the “partition coefficient n-octanol/water, log POW” value in series [3] was 4.98.

On to “3-Hydroxyphenethyl 2-(2-((2,6-dichlorophenyl)amino)phenyl)acetate [hybrid 2]”, for which the IC50 in series [1] (setting [6]) worked out at 16.1 ± 1.15 µM; in the series with A431 cells (A431, 72 h), 27.5 ± 1.24 µM. Besides, in series [1], the “potency relative to diclofenac (native drugs)” value came out at 4 fold.

Regarding `OCCc1ccc(O)cc1` [T, tyrosol, reference compound], in series [1] (setting [6]), the “IC50 ± SEM” value was “not reached”. The IC50 (in series [1] (setting [4]); in the series with A431 cells (setting [5])) was > 100 µM in each case.

The values above are taken from PMC6539072, “Diclofenac-Derived Hybrids for Treatment of Actinic Keratosis and Squamous Cell Carcinoma” (Molecules, 2019).
